How the values were obtained:
[1] = (§1) Oral bioavailability in Sprague-Dawley rat at 5 mg/kg; type: ADME, organism-based; details: Sprague-Dawley, in vivo
Hepatitis C virus [2] = assay: Antiviral activity against HCV genotype 1a assessed as replicon RNA level measured after 3 days by real-time PCR method; type: functional, organism-based, Hepacivirus hominis; details: subtype 1a, 72 h
Hepatitis C virus [3] = assay: Antiviral activity against HCV genotype 1a harboring NS5A Y93H mutant assessed as replicon RNA level measured after 3 days by real-time PCR method; type: functional, organism-based, Hepacivirus hominis; details: subtype 1a, 72 h
[4] = (§2) AUC in Sprague-Dawley rat at 5 mg/kg, po; type: ADME, organism-based; details: Sprague-Dawley, in vivo
Hepatitis C virus [5] = assay: Antiviral activity against HCV genotype 4a assessed as replicon RNA level measured after 3 days by real-time PCR method; type: functional, organism-based, Hepacivirus hominis; details: 72 h
[6] = Clearance in Sprague-Dawley rat at 2 mg/kg, iv or 5 mg/kg, po; type: ADME, organism-based; details: in vivo
[7] = Half life in Sprague-Dawley rat at 2 mg/kg, iv or 5 mg/kg, po; type: ADME, organism-based; details: in vivo
Hepatitis C virus [8] = assay: Antiviral activity against HCV genotype 1b assessed as replicon RNA level measured after 3 days by real-time PCR method; type: functional, organism-based, Hepacivirus hominis; details: 72 h
Hepatitis C virus [9] = assay: Antiviral activity against HCV genotype 2a assessed as replicon RNA level measured after 3 days by real-time PCR method; type: functional, organism-based, Hepacivirus hominis; details: 72 h
Hepatitis C virus [10] = assay: Antiviral activity against HCV genotype 1a harboring NS5A L31V mutant assessed as replicon RNA level measured after 3 days by real-time PCR method; type: functional, organism-based, Hepacivirus hominis; details: subtype 1a, 72 h
Hepatitis C virus [11] = assay: Antiviral activity against HCV genotype 3a assessed as replicon RNA level measured after 3 days by real-time PCR method; type: functional, organism-based, Hepacivirus hominis; details: 72 h
Rattus norvegicus [12] = assay: as §1; type: ADME, organism-based; details: in vivo
Rattus norvegicus [13] = assay: as §2; type: ADME, organism-based; details: in vivo
Hepatitis C virus [14] = assay: Antiviral activity against HCV genotype 2b assessed as replicon RNA level measured after 3 days by real-time PCR method; type: functional, organism-based, Hepacivirus hominis; details: 72 h

Row | Compound | bioavailability [1] [%] | EC50 (Hepatitis C virus [2]) [nM] | EC50 (Hepatitis C virus [3]) [nM] | AUC [4] [µM·h] | EC50 (Hepatitis C virus [5]) [nM] | clearance [6] [mL/min/kg] | half-life [7] [h] | EC50 (Hepatitis C virus [8]) [nM] | EC50 (Hepatitis C virus [9]) [nM] | EC50 (Hepatitis C virus [10]) [nM] | EC50 (Hepatitis C virus [11]) [nM] | F (Rattus norvegicus [12]) [%] | AUC (Rattus norvegicus [13]) [µM·h] | EC50 (Hepatitis C virus [14]) [nM]
1 | COC(=O)N[C@H](C(=O)N1CCC[C@H]1c1ncc(-c2ccc3c(c2)OC(c2ccc(Cl)cc2)n2c-3cc3cc(-c4cnc([C@@H]5CCCN5C(=O)[C@@H](NC(=O)OC)C(C)C)[nH]4)ccc32)[nH]1)C(C)C (stereo partly drawn) | 10 | 0.009 | 5 | 0.88 | 0.01 | 10 | 4.5 | 0.01 | 0.005 | 0.3 | 0.04 | – | – | –
2 | COC(=O)N[C@H](C(=O)N1CCC[C@H]1c1ncc(-c2ccc3c(c2)OC(c2ccc(OC(F)(F)F)cc2)n2c-3cc3cc(-c4cnc([C@@H]5CCCN5C(=O)[C@@H](NC(=O)OC)C(C)C)[nH]4)ccc32)[nH]1)C(C)C (mixture of isomers) | – | 0.005 | 3 | – | 0.2 | – | 6.3 | 0.011 | 0.005 | 0.2 | 0.03 | 7 | 1.1 | –
3 | COC(=O)N[C@H](C(=O)N1CCC[C@H]1c1ncc(-c2ccc3c(c2)OC(c2ccccc2F)n2c-3cc3cc(-c4cnc([C@@H]5CCCN5C(=O)[C@@H](NC(=O)OC)C(C)C)[nH]4)ccc32)[nH]1)C(C)C (stereo partly drawn) | 8 | 0.002 | 6 | 0.67 | 0.007 | 12 | 4.6 | 0.003 | 0.003 | 0.4 | 0.1 | – | – | 3
4 | COC(=O)N[C@H](C(=O)N1CCC[C@H]1c1ncc(-c2ccc3c(c2)OC(c2cccc(-c4ccccc4)c2)n2c-3cc3cc(-c4cnc([C@@H]5CCCN5C(=O)[C@@H](NC(=O)OC)C(C)C)[nH]4)ccc32)[nH]1)C(C)C (stereo partly drawn) | – | 0.003 | 8 | – | 0.005 | – | – | 0.004 | 0.003 | 0.3 | 0.07 | – | – | 1
5 | COC(=O)N[C@H](C(=O)N1CCC[C@H]1c1ncc(-c2ccc3c(c2)OC(c2cccc(Cl)c2)n2c-3cc3cc(-c4cnc([C@@H]5CCCN5C(=O)[C@@H](NC(=O)OC)C(C)C)[nH]4)ccc32)[nH]1)C(C)C (stereo partly drawn) | 12 | 0.003 | 3 | 1.4 | 0.002 | 8 | 4.1 | 0.002 | 0.01 | 0.1 | 0.03 | – | – | 0.4
6 | COC(=O)N[C@H](C(=O)N1CCC[C@H]1c1ncc(-c2ccc3c(c2)OC(c2cccc(-c4ccc(N)nc4)c2)n2c-3cc3cc(-c4cnc([C@@H]5CCCN5C(=O)[C@@H](NC(=O)OC)C(C)C)[nH]4)ccc32)[nH]1)C(C)C (mixture of isomers) | – | 0.004 | 10 | – | 0.002 | – | – | 0.006 | 0.005 | 0.2 | 0.2 | – | – | 2
7 | COC(=O)N[C@H](C(=O)N1CCC[C@H]1c1ncc(-c2ccc3c(c2)OC(c2cccc(-c4noc(C)n4)c2)n2c-3cc3cc(-c4cnc([C@@H]5CCCN5C(=O)[C@@H](NC(=O)OC)C(C)C)[nH]4)ccc32)[nH]1)C(C)C (mixture of isomers) | – | 0.003 | 0.9 | – | 0.01 | – | – | 0.004 | 0.002 | 0.2 | 0.07 | – | – | 2
8 | COC(=O)N[C@H](C(=O)N1CCC[C@H]1c1ncc(-c2ccc3c(c2)OC(c2ccc(-c4ccncc4)cc2)n2c-3cc3cc(-c4cnc([C@@H]5CCCN5C(=O)[C@@H](NC(=O)OC)C(C)C)[nH]4)ccc32)[nH]1)C(C)C (mixture of isomers) | – | 0.003 | 19 | – | 0.02 | – | – | 0.004 | < 0.2 | 0.3 | 0.1 | – | – | < 2
9 | CCOc1cccc(C2Oc3cc(-c4cnc([C@@H]5CCCN5C(=O)[C@@H](NC(=O)OC)C(C)C)[nH]4)ccc3-c3cc4cc(-c5cnc([C@@H]6CCCN6C(=O)[C@@H](NC(=O)OC)C(C)C)[nH]5)ccc4n32)c1 (mixture of isomers) | – | 0.02 | 1.8 | – | 0.0005 | – | – | 0.001 | 0.01 | 0.2 | 0.05 | – | – | 0.4
10 | COC(=O)N[C@H](C(=O)N1CCC[C@H]1c1ncc(-c2ccc3c(c2)OC(c2cccc(-c4ccc(-c5ccccc5)cc4)c2)n2c-3cc3cc(-c4cnc([C@@H]5CCCN5C(=O)[C@@H](NC(=O)OC)C(C)C)[nH]4)ccc32)[nH]1)C(C)C (mixture of isomers) | – | 0.006 | 2 | – | 0.005 | – | – | 0.003 | 0.003 | 0.3 | 0.01 | – | – | 3
11 | COC(=O)N[C@H](C(=O)N1CCC[C@H]1c1ncc(-c2ccc3c(c2)OC(c2cc(F)cc(F)c2)n2c-3cc3cc(-c4cnc([C@@H]5CCCN5C(=O)[C@@H](NC(=O)OC)C(C)C)[nH]4)ccc32)[nH]1)C(C)C (stereo partly drawn) | 15 | 0.011 | 4 | 1.5 | 0.004 | 9 | 5.1 | 0.01 | 0.02 | 0.3 | 0.09 | – | – | 0.5
12 | COC(=O)N[C@H](C(=O)N1CCC[C@H]1c1ncc(-c2ccc3c(c2)OC(c2ccc(OC)cc2)n2c-3cc3cc(-c4cnc([C@@H]5CCCN5C(=O)[C@@H](NC(=O)OC)C(C)C)[nH]4)ccc32)[nH]1)C(C)C (mixture of isomers) | – | 0.01 | 15 | – | 0.008 | – | – | 0.007 | 0.004 | 0.3 | 0.07 | – | – | 0.8
13 | COC(=O)N[C@H](C(=O)N1CCC[C@H]1c1ncc(-c2ccc3c(c2)OC(c2ccc(C#N)cc2)n2c-3cc3cc(-c4cnc([C@@H]5CCCN5C(=O)[C@@H](NC(=O)OC)C(C)C)[nH]4)ccc32)[nH]1)C(C)C (mixture of isomers) | – | 0.004 | 12 | – | 0.01 | – | – | 0.003 | 0.006 | 0.6 | 0.25 | – | – | 6.5
14 | COC(=O)N[C@H](C(=O)N1CCC[C@H]1c1ncc(-c2ccc3c(c2)OC(c2cccc(OC(F)(F)F)c2)n2c-3cc3cc(-c4cnc([C@@H]5CCCN5C(=O)[C@@H](NC(=O)OC)C(C)C)[nH]4)ccc32)[nH]1)C(C)C (mixture of isomers) | – | 0.005 | 6.2 | – | 0.01 | – | – | 0.003 | 0.003 | 0.2 | 0.03 | – | – | 3
15 | COC(=O)N[C@H](C(=O)N1CCC[C@H]1c1ncc(-c2ccc3c(c2)OC(c2ccc(-c4cncnc4)cc2)n2c-3cc3cc(-c4cnc([C@@H]5CCCN5C(=O)[C@@H](NC(=O)OC)C(C)C)[nH]4)ccc32)[nH]1)C(C)C (mixture of isomers) | – | 0.07 | 70 | – | 0.04 | – | – | 0.023 | 0.04 | 10 | 1 | – | – | 13
16 | COC(=O)N[C@H](C(=O)N1CCC[C@H]1c1ncc(-c2ccc3c(c2)OC(c2cccc(C(N)=O)c2)n2c-3cc3cc(-c4cnc([C@@H]5CCCN5C(=O)[C@@H](NC(=O)OC)C(C)C)[nH]4)ccc32)[nH]1)C(C)C (mixture of isomers) | – | 0.09 | 19 | – | > 1 | – | – | 0.01 | 0.51 | 7 | > 1 | – | – | > 100
17 | COC(=O)N[C@H](C(=O)N1CCC[C@H]1c1ncc(-c2ccc3c(c2)OC(c2ccccc2)n2c-3cc3cc(-c4cnc([C@@H]5CCCN5C(=O)[C@@H](NC(=O)OC)C(C)C)[nH]4)ccc32)[nH]1)C(C)C (stereo partly drawn) | – | 0.004 | 2 | – | 0.003 | – | – | 0.003 | 0.003 | 0.5 | 0.02 | – | – | 3
18 | COC(=O)N[C@H](C(=O)N1CCC[C@H]1c1ncc(-c2ccc3c(c2)OC(c2cccc(F)c2)n2c-3cc3cc(-c4cnc([C@@H]5CCCN5C(=O)[C@@H](NC(=O)OC)C(C)C)[nH]4)ccc32)[nH]1)C(C)C (stereo partly drawn) | 12 | 0.003 | 4 | 1.5 | 0.006 | 7 | 5.4 | 0.002 | 0.004 | 0.2 | 0.04 | – | – | 1
19 | COC(=O)N[C@H](C(=O)N1CCC[C@H]1c1ncc(-c2ccc3c(c2)OC(c2ccc(-c4ccc(-c5ccccc5)cc4)cc2)n2c-3cc3cc(-c4cnc([C@@H]5CCCN5C(=O)[C@@H](NC(=O)OC)C(C)C)[nH]4)ccc32)[nH]1)C(C)C (mixture of isomers) | – | 0.001 | < 2 | – | 0.001 | – | – | 0.002 | 0.003 | 0.06 | 0.1 | – | – | 0.06
